The values that follow come from US20060079453A1, “Hla binding peptides and their uses” (priority 2002, published 2006).

Among the targets are HLA-A*0301 (Homo sapiens, UniProt P04439); HLA-A*1101 (Homo sapiens, UniProt P04439, A114D/D185E/E176A/F33Y/L180Q/S129P/T187R); HLA-A*3101 (Homo sapiens, UniProt P04439, A270S/D185E/E176V/E277Q/F33T/G231S/G80R/H175R/I121M/I218V/I322F/K168Q/L300P/L318F/M331R/P217A/Q94H/R138Q/T323A/T345S/T97I/V358M); HLA-A*3301 (Homo sapiens, UniProt P04439, A270S/D185E/E176V/E277Q/E87N/F33T/G231S/H175R/I121M/I218V/I322F/K168Q/K210R/L300P/L318F/M331R/P217A/Q86R/Q94H/R138Q/T323A/T345S/T97I/V358M/Y195H); HLA-A*6801 (Homo sapiens, UniProt P04439, A269V/D185E/E176V/E277Q/E87N/F33Y/G231S/I121M/I166T/I218V/L180W/L300P/L318F/N151K/P208A/P217A/Q86R/R169H/T345S).

What all share (test): biochemical
What all share (format): binding

pIC50: −log10 of the molar value. No end group written: not given here.

GVNHQHLPAK: the pIC50 against HLA-A*0301 was 7.38; on HLA-A*1101, 7.96; against HLA-A*3101 it was 5.48; at HLA-A*3301, 4.12; against HLA-A*6801, 5.03.
Take GTRQARRNK: the pIC50 against HLA-A*0301 was 7.17; against HLA-A*1101, 6.13; at HLA-A*3101 it was 5.01; against HLA-A*3301, 4.34; on HLA-A*6801, 4.22.
Take AVADLTVVYR: the pIC50 against HLA-A*0301 is 6.31; against HLA-A*1101, 7.96; against HLA-A*3101, 7.51; against HLA-A*3301, 6.05; at HLA-A*6801, 8.14.
Consider FLYLLNKKNK, for which the pIC50 against HLA-A*0301 is 6.75; against HLA-A*1101 it was 6.32; against HLA-A*3101, 5.37; against HLA-A*3301, 6.11; against HLA-A*6801, 6.81.
Consider AVIFTPIYY, for which the pIC50 on HLA-A*0301 is 7.60; against HLA-A*1101, 8.02; against HLA-A*3101 it was 4.37; on HLA-A*3301, 5.00; against HLA-A*6801, 5.87.
With LTFYSKVRK, the pIC50 against HLA-A*0301 was 8.42; against HLA-A*1101, 8.10; against HLA-A*3101, 7.06; at HLA-A*3301, 5.47; against HLA-A*6801 it was 7.89.
In the case of GFNHQHLPAR, the pIC50 was less than 4.33 against HLA-A*0301; 4.55 at HLA-A*1101; 6.76 against HLA-A*3101; 5.25 at HLA-A*3301; 4.46 on HLA-A*6801.
Turning to VSIRVGGQIK, the pIC50 against HLA-A*0301 was 6.19; against HLA-A*1101, 7.04; against HLA-A*3101, 4.30; at HLA-A*3301 it was less than 4.21; on HLA-A*6801 it was 5.71.
In the case of RLFEESLGIR, the pIC50 on HLA-A*0301 was 7.19; at HLA-A*1101 it was 5.96; against HLA-A*3101, 6.53; against HLA-A*3301, 6.10; against HLA-A*6801, 6.39.
Take VSIRVGGQTK: the pIC50 is 6.47 against HLA-A*0301; 7.68 against HLA-A*1101; 4.52 on HLA-A*3101; 4.41 on HLA-A*3301; 6.54 against HLA-A*6801.
ETVRHFPR: the pIC50 against HLA-A*0301 is less than 4.87; on HLA-A*1101 it was 5.38; at HLA-A*3101, 6.00; against HLA-A*3301 it was 7.09; at HLA-A*6801, 7.07.
Take KQLCDLLIK: the pIC50 is 6.65 against HLA-A*0301; 7.19 at HLA-A*1101; 6.47 on HLA-A*3101; 4.33 against HLA-A*3301; 4.92 against HLA-A*6801.
Taken in the same sequence, the figures for AVPGGYPRRK were 6.09, 7.22, 4.40, less than 5.25 and 6.07.
Consider RFLSKISEYY, for which the pIC50 was 5.77 against HLA-A*0301; 4.59 against HLA-A*1101; 7.85 against HLA-A*3101; 4.39 at HLA-A*3301; 5.40 against HLA-A*6801.
For TLEQTVKK, the pIC50 is 5.32 on HLA-A*0301; 6.69 against HLA-A*1101; less than 4.00 on HLA-A*3101; less than 4.12 against HLA-A*3301; 4.67 on HLA-A*6801.
Take VTIKVGGQLK: the pIC50 was 6.73 on HLA-A*0301; 7.23 against HLA-A*1101; 5.22 at HLA-A*3101; 4.32 at HLA-A*3301; 6.90 against HLA-A*6801.
Take GVSGPGPGK: the pIC50 on HLA-A*0301 was 7.89; at HLA-A*1101, 8.24; at HLA-A*3101 it was less than 4.95; against HLA-A*3301 it was less than 3.95; against HLA-A*6801, 6.68.
With NVMGRWTGR, the pIC50 against HLA-A*0301 was 5.41; at HLA-A*1101, 6.10; against HLA-A*3101, 7.40; against HLA-A*3301, 7.74; against HLA-A*6801, 7.70.
For GTTLESITKK, the pIC50 is 6.21 on HLA-A*0301; 6.97 at HLA-A*1101; 4.07 at HLA-A*3101; 3.88 against HLA-A*3301; 4.99 against HLA-A*6801.
Take ALQAAAAAK: the pIC50 is 7.24 at HLA-A*0301; 7.19 at HLA-A*1101; 4.28 against HLA-A*3101; less than 4.14 on HLA-A*3301; less than 4.10 on HLA-A*6801.
As for AFCWRPRRR, the pIC50 on HLA-A*0301 is 6.56; at HLA-A*1101, 4.75; on HLA-A*3101, 7.22; against HLA-A*3301, 7.12; against HLA-A*6801, 5.96.
Consider AACWRSRRK, for which the pIC50 against HLA-A*0301 is 7.12; against HLA-A*1101, 6.11; against HLA-A*3101, 5.52; against HLA-A*3301, 4.34; against HLA-A*6801 it was 4.89.
In the case of SLGPGPGTK, the pIC50 is 8.11 on HLA-A*0301; 8.24 on HLA-A*1101; 5.36 against HLA-A*3101; 3.82 at HLA-A*3301; 5.45 against HLA-A*6801.
Turning to KVRFHNIRGR, the pIC50 against HLA-A*0301 was 7.41; against HLA-A*1101, 5.06; at HLA-A*3101, 7.57; on HLA-A*3301 it was 5.35; against HLA-A*6801, 5.40.
Turning to GVDGLIYSK, the pIC50 on HLA-A*0301 was 5.00; at HLA-A*1101 it was 7.33; against HLA-A*3101 it was less than 4.75; at HLA-A*3301 it was less than 4.53; at HLA-A*6801, 5.29.
Taken in the same sequence, the figures for EVLEIPLIDLR were less than 4.33, 4.78, 4.44, 7.14 and 7.57.
Taken in the same sequence, the figures for YTFVFADLR were 5.44, 8.09, 7.70, 8.18 and 8.54.
Take QMMNVNLQK: the pIC50 is 7.70 against HLA-A*0301; 8.15 against HLA-A*1101; 6.30 against HLA-A*3101; 5.18 against HLA-A*3301; 6.61 against HLA-A*6801.
Turning to QQNQESKIMK, the negative-log IC50 (pIC50) on HLA-A*0301 is 5.46; at HLA-A*1101, 7.11; against HLA-A*3101, 4.55; at HLA-A*3301, less than 4.76; against HLA-A*6801, 4.67.
For KQENWYSLKK, the pIC50 was 6.22 against HLA-A*0301; 6.75 at HLA-A*1101; 5.20 on HLA-A*3101; less than 3.87 on HLA-A*3301; 5.32 against HLA-A*6801.
Regarding VFADLRIVYK, the pIC50 was 5.68 against HLA-A*0301; 6.90 at HLA-A*1101; 6.40 against HLA-A*3101; 6.70 against HLA-A*3301; 6.56 against HLA-A*6801.
Taken in the same sequence, the figures for ALNAAAAAK were 7.13, 7.68, 4.96, less than 4.14 and 4.10.
Consider KISEYRHYNR, for which the pIC50 against HLA-A*0301 was 7.24; against HLA-A*1101 it was 6.85; against HLA-A*3101, 7.77; against HLA-A*3301 it was 6.79; at HLA-A*6801 it was 5.80.
Taken in the same sequence, the figures for VTVYYGPGPGK were 6.51, 7.62, 5.01, 3.99 and 7.52.
Take VTVRVGGQLK: the pIC50 at HLA-A*0301 was 6.67; at HLA-A*1101 it was 7.72; against HLA-A*3101 it was 5.08; against HLA-A*3301 it was less than 4.14; against HLA-A*6801, 6.85.
Taken in the same sequence, the figures for AVKDLCIVYR were 6.08, 7.18, 8.14, 8.10 and 8.19.
Consider KQHTCYLIR, for which the pIC50 was 6.67 at HLA-A*1101, 7.89 on HLA-A*3101, 5.64 against HLA-A*3301 and 4.91 against HLA-A*6801.
On to LVYRDDFPK, for which the negative-log IC50 (pIC50) on HLA-A*1101 is 7.89; against HLA-A*3101, 5.52; against HLA-A*3301, 5.71; against HLA-A*6801 it was 6.89.
Regarding MQSSFFMNR, the pIC50 at HLA-A*1101 was 8.96; against HLA-A*3101, 7.54; against HLA-A*3301, 7.12; against HLA-A*6801, 8.42.
Turning to GLYNLLIRCLR, the pIC50 against HLA-A*1101 is 5.80; at HLA-A*3101 it was 6.60; on HLA-A*3301, 6.40; against HLA-A*6801, 5.79.
Turning to RFCLLFYSK, the pIC50 against HLA-A*1101 is 6.32; against HLA-A*3101, 7.08; against HLA-A*3301, 6.35; on HLA-A*6801, 6.63.
As for KFIDFYSRIR, the pIC50 at HLA-A*1101 is 5.05; against HLA-A*3101, 8.48; against HLA-A*3301, 6.17; on HLA-A*6801, 5.59.
Taken in the same sequence, the figures for GVLDGLIYSK were 7.68, 5.22, less than 4.60 and 6.08.
Turning to GTRQTRKNK, the pIC50 on HLA-A*1101 was 5.51; against HLA-A*3101, 4.87; against HLA-A*3301, less than 4.53; at HLA-A*6801, 4.73.
As for RFEDPTRRPYK, the pIC50 against HLA-A*1101 was 6.36; against HLA-A*3101, 7.28; at HLA-A*3301, 5.75; against HLA-A*6801 it was 5.13.
With VVHAQLPAR, the pIC50 against HLA-A*1101 is 6.90; at HLA-A*3101 it was 8.47; at HLA-A*3301, 7.92; against HLA-A*6801, 6.70.
VTVGPGPGVWK: the pIC50 against HLA-A*1101 is 8.57; against HLA-A*3101 it was 5.56; against HLA-A*3301 it was 4.12; on HLA-A*6801 it was 7.68.

Broadly, the pIC50 is the negative decadic logarithm of the IC50, by convention in mol/L. A lower pIC50 goes with a high IC50.
